O=C(NC(Cc1cc(=O)[nH]c2ccccc12)C(=O)O)c1ccc(Cl)cc1 (stereo not given)
solubility (mole fraction)
Conditions	278.15 K	283.15 K	288.15 K	293.15 K	298.15 K	303.15 K	308.15 K	313.15 K	318.15 K
in ethanol	6.26e-05	6.92e-05	7.65e-05	8.61e-05	9.66e-05	0.000107	0.000118	0.000131	0.000143
in isopropanol	2.41e-05	3.02e-05	3.87e-05	4.8e-05	5.92e-05	7.31e-05	8.91e-05	0.000107	0.000129
in n-propanol	4.25e-05	5.08e-05	6e-05	7.03e-05	8.1e-05	9.38e-05	0.000107	0.000123	0.00014
in propylene glycol	0.000182	0.000192	0.000207	0.000225	0.000247	0.000269	0.000293	0.000319	0.00035
in water	3.46e-07	4.26e-07	5.29e-07	6.84e-07	8.68e-07	1.08e-06	1.3e-06	1.56e-06	1.87e-06
